Target: T1, ligand binding domain of human ROR gamma (Homo sapiens, UniProt P51449)
T1 construct: NM_001001523; expressed in transfected cells; host or cells: HEK293T
T1 sequence (P51449 247-497 isoform P51449-2): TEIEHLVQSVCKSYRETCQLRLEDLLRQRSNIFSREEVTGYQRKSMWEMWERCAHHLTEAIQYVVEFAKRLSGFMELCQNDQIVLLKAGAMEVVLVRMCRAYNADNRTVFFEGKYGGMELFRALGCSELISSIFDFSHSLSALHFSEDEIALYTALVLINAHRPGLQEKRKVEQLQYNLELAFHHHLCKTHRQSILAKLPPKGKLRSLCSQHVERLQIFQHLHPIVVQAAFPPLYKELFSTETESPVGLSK
Test: ROR gamma reporter gene assay (GAL4-RORγ LBD luciferase, Dual-Glo)
Format: cell-based
Conditions: HEK293T cells transfected with pM-ROR gamma, 8 concentrations 3.5 nM to 10.5 μM, 24 h incubation; read-out: result (pIC50, inhibition of RORγ transcriptional activity) (converted)
Outline: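 HEK293T cells were co-transfected with GAL4 DBD fused to human RORγ LBD (aa 247-497), a 5×UAS firefly luciferase reporter and CMV-driven renilla luciferase, in medium with 10% charcoal-stripped FBS.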

Compound: CC1(C)CC(CN(CC(=O)c2c(Cl)cncc2Cl)C(=O)c2cnn([C@H]3CC[C@H](C(=O)O)CC3)c2C(F)(F)F)C1 [Example 23, trans-4-(4-((2-(3,5-dichloropyridin-4-yl)-2-oxoethyl)((3,3-dimethylcyclobutyl)methyl)carbamoyl)-5-(trifluoromethyl)-1H-pyrazol-1-yl)cyclohexanecarboxylic acid]
- IC50: 24000 pM

Compound: O=C(CN(CC1CCC(F)(F)CC1)C(=O)c1cnn([C@H]2CC[C@H](C(=O)O)CC2)c1C(F)(F)F)c1c(Cl)cncc1Cl [Example 101, trans-4-(4-((2-(3,5-dichloropyridin-4-yl)-2-oxoethyl)-((4,4-difluorocylohexyl)methyl)carbamoyl)-5-(trifluoromethyl)pyrazol-1-yl)cyclohexane-1-carboxylic acid]
- IC50: 87100 pM

Compound: CC1(C)[C@@H]2C[C@H](N(C[C@@H](O)c3c(F)cccc3Cl)C(=O)c3cnn([C@H]4CC[C@](C)(C(=O)O)CC4)c3C(F)(F)F)C[C@@H]21 [Example 355, trans-4-(4-((2-(2-chloro-6-fluorophenyl)-2-hydroxyethyl)((1R,3r,5S)-6,6-dimethylbicyclo[3.1.0]hexan-3-yl)carbamoyl)-5-(trifluoromethyl)-1H-pyrazol-1-yl)-1-methylcyclohexanecarboxylic acid]
- IC50: 21900 pM

Compound: Nc1nccc(Cl)c1C(=O)CN(Cc1cc(F)cc(F)c1)C(=O)c1cnn([C@H]2CC[C@H](C(=O)O)CC2)c1C(F)(F)F [Example 21, trans-4-(4-((2-(2-amino-4-chloropyridin-3-yl)-2-oxoethyl)(3,5-difluorobenzyl)carbamoyl)-5-(trifluoromethyl)-1H-pyrazol-1-yl)cyclohexanecarboxylic acid]
- IC50: > 1e+07 pM

Compound: COc1cccc(Cl)c1C(=O)CN(CC(C)(C)C)C(=O)c1cnn([C@H]2CC[C@](C)(C(=O)O)CC2)c1C(F)(F)F [Example 253, trans-4-(4-((2-(2-chloro-6-methoxyphenyl)-2-oxoethyl)-(2,2-dimethylpropyl)carbamoyl)-5-(trifluoromethyl)pyrazol-1-yl)-1-methylcyclohexane-1-carboxylic acid]
- IC50: 45700 pM

Compound: CC(C)CC(C)N(CC(=O)c1c(Cl)cncc1Cl)C(=O)c1cnn([C@H]2CC[C@](C)(C(=O)O)CC2)c1C(F)(F)F (stereo partly drawn) [Example 312, trans-4-(4-((2-(3,5-dichloropyridin-4-yl)-2-oxoethyl)-(4-methylpentan-2-yl)carbamoyl)-5-(trifluoromethyl)pyrazol-1-yl)-1-methylcyclohexane-1-carboxylic acid]
- IC50: 52500 pM

Compound: O=C1CC[C@@H](CN(CC(=O)c2c(Cl)cncc2Cl)C(=O)c2cnn([C@H]3CC[C@H](C(=O)O)CC3)c2C(F)(F)F)N1 [Example 157, trans-4-(4-((2-(3,5-dichloropyridin-4-yl)-2-oxoethyl)-(((2S)-5-oxopyrrolidin-2-yl)methyl)carbamoyl)-5-(trifluoromethyl)pyrazol-1-yl)cyclohexane-1-carboxylic acid]
- IC50: > 1e+07 pM

Compound: CC12CCC(CN(CC(=O)c3c(Cl)cc(Cl)cc3Cl)C(=O)c3cnn([C@H]4CC[C@](C)(C(=O)O)CC4)c3C(F)(F)F)(CC1)C2 [Example 275, trans-4-(4-((1-methyl-4-bicyclo[2.2.1]heptanyl)methyl-(2-oxo-2-(2,4,6-trichlorophenyl)ethyl)carbamoyl)-5-(trifluoromethyl)pyrazol-1-yl)-1-methylcyclohexane-1-carboxylic acid]
- IC50: < 3470 pM

Compound: O=C(CN(C(=O)c1cnn([C@H]2CC[C@H](C(=O)O)CC2)c1C(F)(F)F)C1CCOCC1)c1c(Cl)cncc1Cl [Example 181, trans-4-(4-((2-(3,5-dichloropyridin-4-yl)-2-oxoethyl)-(oxan-4-yl)carbamoyl)-5-(trifluoromethyl)pyrazol-1-yl)cyclohexane-1-carboxylic acid]
- IC50: > 1e+07 pM

Compound: O=C(CN(Cc1cc(F)cc(F)c1)C(=O)c1cnn([C@H]2CC[C@H](C(=O)O)CC2)c1C(F)(F)F)c1ccc(O)cc1 [Example 69, trans-4-(4-((3,5-difluorobenzyl)(2-(4-hydroxyphenyl)-2-oxoethyl)carbamoyl)-5-(trifluoromethyl)-1H-pyrazol-1-yl)cyclohexanecarboxylic acid]
- IC50: > 1e+07 pM

Compound: COc1cccc(Cl)c1[C@@H](O)CN(CC(C)(C)C)C(=O)c1cnn([C@H]2CC[C@](C)(C(=O)O)CC2)c1C(F)(F)F [Example 356, trans-4-(4-(((2R)-2-(2-chloro-6-methoxyphenyl)-2-hydroxyethyl)-(2,2-dimethylpropyl)carbamoyl)-5-(trifluoromethyl)pyrazol-1-yl)-1-methylcyclohexane-1-carboxylic acid]
- IC50: 102000 pM

Compound: CC1(C)[C@@H]2C[C@H](N(CC(=O)c3c(Cl)cc(Cl)cc3Cl)C(=O)c3cnn(C45CCC(C(=O)O)(CC4)CC5)c3C(F)(F)F)C[C@@H]21 [Example 241, 4-(4-(((1R,3r,5S)-6,6-dimethyl-3-bicyclo[3.1.0]hexanyl)-(2-oxo-2-(2,4,6-trichlorophenyl)ethyl)carbamoyl)-5-(trifluoromethyl)pyrazol-1-yl)bicyclo(2.2.2)octane-1-carboxylic acid]
- IC50: 5130 pM

Compound: CC1(C)[C@@H]2C[C@H](N(CC(=O)c3c(F)cncc3Cl)C(=O)c3cnn([C@H]4CC[C@](C)(C(=O)O)CC4)c3C(F)(F)F)C[C@@H]21 [Example 333, trans-4-(4-((2-(3-chloro-5-fluoropyridin-4-yl)-2-oxoethyl)((1R,3r,5S)-6,6-dimethylbicyclo[3.1.0]hexan-3-yl)carbamoyl)-5-(trifluoromethyl)-1H-pyrazol-1-yl)-1-methylcyclohexanecarboxylic acid]
- IC50: 17000 pM

Compound: Cc1cc(Cl)c(C(=O)CN(Cc2cc(F)cc(F)c2)C(=O)c2cnn([C@H]3CC[C@H](C(=O)O)CC3)c2C(F)(F)F)c(C#N)c1 [Example 307, trans-4-(4-((2-(2-chloro-6-cyano-4-methylphenyl)-2-oxoethyl)-((3,5-difluorophenyl)methyl)carbamoyl)-5-(trifluoromethyl)pyrazol-1-yl)cyclohexane-1-carboxylic acid]
- IC50: 8.32e+06 pM

Compound: CC1(C)CCC(CN(CC(=O)c2c(Cl)cncc2Cl)C(=O)c2cnn([C@H]3CC[C@H](C(=O)O)CC3)c2C(F)(F)F)CC1 [Example 36, trans-4-(4-((2-(3,5-dichloropyridin-4-yl)-2-oxoethyl)((4,4-dimethylcyclohexyl)methyl)carbamoyl)-5-(trifluorornethyl)-1H-pyrazol-1-yl)cyclohexanecarboxylic acid]
- IC50: 117000 pM

Compound: CC1(C)[C@@H]2C[C@H](N(C[C@@H](O)c3ccccc3Cl)C(=O)c3cnn([C@H]4CC[C@](C)(C(=O)O)CC4)c3C(F)(F)F)C[C@@H]21 [Example 369, trans-4-(4-((2-(2-chlorophenyl)-2-hydroxyethyl)((1R,3r,5S)-6,6-dimethylbicyclo[3.1.0]hexan-3-yl)carbamoyl)-5-(trifluoromethyl)-1H-pyrazol-yl)-1-methylcyclohexanecarboxylic acid]
- IC50: 1.23e+06 pM

Compound: O=C(c1cnn([C@H]2CC[C@H](C(=O)O)CC2)c1C(F)(F)F)N(Cc1cc(F)cc(F)c1)CC(F)(F)c1c(Cl)cncc1Cl [Example 10, trans-4-(4-((2-(3,5-dichloropyridin-4-yl)-2,2-difluoroethyl)(3,5-difluorobenzyl)carbamoyl)-5-(trifluoromethyl)-1H-pyrazol-1-yl)cyclohexanecarboxylic acid]
- IC50: 25700 pM

Source: patent US9365522B2, “Pyrazole amide derivative” (AMGEN INC., priority 2015, dated 2016)
